From paper PMC8297715 (ACS chemical biology, 2020)
pIC50: −log10 of the molar value.

Tests used:
human nSMase2 = target: T1, human nSMase2 (Homo sapiens, UniProt Q9NY59); assay: Amplex Red neutral sphingomyelinase enzyme activity assay; assay type: biochemical
T1 sequence (Q9NY59 1-655): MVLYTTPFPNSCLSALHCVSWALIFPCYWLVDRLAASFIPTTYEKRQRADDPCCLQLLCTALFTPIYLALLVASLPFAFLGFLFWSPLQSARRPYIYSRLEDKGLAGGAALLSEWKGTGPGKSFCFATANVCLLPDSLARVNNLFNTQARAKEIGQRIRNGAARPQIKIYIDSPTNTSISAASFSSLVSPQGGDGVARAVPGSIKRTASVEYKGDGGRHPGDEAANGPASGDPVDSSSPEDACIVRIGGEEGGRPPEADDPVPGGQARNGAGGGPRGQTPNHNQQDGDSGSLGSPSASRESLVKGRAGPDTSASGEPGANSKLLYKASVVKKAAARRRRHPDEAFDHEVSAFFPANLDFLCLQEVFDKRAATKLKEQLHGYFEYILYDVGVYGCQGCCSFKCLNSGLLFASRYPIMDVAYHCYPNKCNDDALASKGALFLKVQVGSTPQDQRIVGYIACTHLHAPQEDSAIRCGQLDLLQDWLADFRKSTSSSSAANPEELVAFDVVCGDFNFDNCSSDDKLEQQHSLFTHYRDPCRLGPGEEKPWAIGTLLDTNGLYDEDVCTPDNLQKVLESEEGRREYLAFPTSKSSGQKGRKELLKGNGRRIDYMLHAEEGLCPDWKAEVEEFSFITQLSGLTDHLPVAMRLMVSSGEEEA

human AChE [1] = target: T2, human AChE (Homo sapiens, UniProt P22303); conditions: cited from earlier work
T2 sequence (P22303 32-614): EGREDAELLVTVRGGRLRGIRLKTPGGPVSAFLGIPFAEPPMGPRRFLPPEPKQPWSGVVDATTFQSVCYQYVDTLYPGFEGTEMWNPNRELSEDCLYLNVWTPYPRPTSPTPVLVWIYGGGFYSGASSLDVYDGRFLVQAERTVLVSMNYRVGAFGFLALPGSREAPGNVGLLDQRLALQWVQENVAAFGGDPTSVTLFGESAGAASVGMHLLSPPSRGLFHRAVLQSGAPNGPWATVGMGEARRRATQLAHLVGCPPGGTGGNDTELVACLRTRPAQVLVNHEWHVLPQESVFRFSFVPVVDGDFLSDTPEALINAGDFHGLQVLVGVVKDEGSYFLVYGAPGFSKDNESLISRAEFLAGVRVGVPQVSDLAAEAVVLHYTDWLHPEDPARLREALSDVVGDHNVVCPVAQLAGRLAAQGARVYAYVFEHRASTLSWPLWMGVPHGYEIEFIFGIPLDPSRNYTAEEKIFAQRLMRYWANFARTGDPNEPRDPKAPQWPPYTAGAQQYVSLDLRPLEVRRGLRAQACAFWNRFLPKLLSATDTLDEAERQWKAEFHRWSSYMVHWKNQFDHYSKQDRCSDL

[2] = tested on: HEK293T Tau RD P301S FRET biosensor (tau biosensor); conditions: previously published; cited from earlier work
human AChE [3] = target: T2, human AChE; assay: Amplex Red acetylcholinesterase; assay type: biochemical; conditions: read-out: AChE inhibition IC50; dose-response; human AChE (Sigma)
[4] = tested on: HEK293T Tau RD P301S FRET biosensor (tau biosensor); assay: EV-mediated transfer; assay type: cell-based; conditions: 20 μM

## CN1CC[C@]2(C)c3cc(OC(=O)Nc4ccccc4)ccc3N(C)[C@H]12 [Posiphen]
Human nSMase2
  pIC50: < 4.30
Human AChE [1]; reported
  AChE inhibitor activity: weak AChE inhibitor

## O=c1[nH]c(=S)[nH]c(-c2ccccc2)c1Cc1c(O)ccc2ccccc12 [cambinol]
Human AChE [1]; previously published
  AChE activity: no AChE activity
[2]
  tau seed transfer in the EMT assay: shows inhibition of tau seed transfer

## CN1c2ccc(OC(=O)Nc3ccccc3)cc2[C@]2(C)CCO[C@H]12 [compound 1, (−)-phensvenine]
Human AChE [3]
  pIC50: 6.30

## CN1CC[C@@]2(C)c3cc(OC(=O)Nc4ccccc4)ccc3N(C)[C@@H]12 [phenserine]
Human nSMase2
  pIC50: < 4.30

## CCN(C)C(=O)Oc1cccc([C@H](C)N(C)C)c1 [rivastigmine]
Human nSMase2
  nSMase2 activity: no nSMase2 activity
[4]
  EV-mediated tau seed transfer, EMT assay: partially suppress
